Assay results: patent US8242089B2, “Sphingolipids polyalkylamine conjugates for use in transfection” (Yissum Research Development Company of the Hebrew …, priority 2003, dated 2012)

Tested on: NIH 3T3 cells
Assay: Methylene blue toxicity assay on NIH 3T3 cells
Assay type: cell-based
Details: amounts used in transfection, free assemblies or lipoplexes with luciferase plasmid, lipid/DNA charge ratios 1-16, chloride form
Method: Cytotoxicity was tested by the methylene blue (MB) staining assay [Elliott W M and Auersperg N. Biotech Histochem 68:29-35 (1993)]. In general, a known number of exponentially growing cells in 200 μL of medium were plated in 96-microwell, flat-bottomed plates. For each of the lipoplexes tested, 3 wells were used. Following 24 h of incubation in culture, 20 μL of different concentrations of various lipoplexes were added to each well containing untreated cells. Normal saline was added to the controls. Cells were exposed to lipoplex for 24 h. At the end of exposure the treated cells, as well as parallel control cells were washed and fixed by adding 50 μL of 2.5% glutaraldehyde to each well for 15 min. Fixed cells were rinsed 10 times with deionized water and once with borate buffer (0.1 M, pH 8.5), dried, and stained with MB (100 μL of 1% solution in 0.1 M borate buffer, pH 8.5) for 1 h at r. t. Stained cells were rinsed thoroughly with de-ionized water to remove any non-cell-bound dye and then dried. The MB bound to the fixed cells was extracted by incubation at 37° C. with 200 μL of 0.1 N HCl for 1 h, and the net optical density of the dye in each well was determined by a plate spectrophotometer (Labsystems Multyskan Bichromatic, Finland) at 620 nm.

## CCCCCCCCCCCCC/C=C/[C@@H](O)[C@H](COC(=O)NCCCNCCCCNCCCN)NC(=O)CCCCCCCCCCCCCCC [CCS, N-palmitoyl D-erythro sphingosyl carbamoyl-spermine]
  toxicity (living cells): non toxic
